Experimental data as given in patent US7910723B2, “IG20 splice variants therapeutics for cancer” (The Board of Trustees of the University of Illinois, priority 2006, dated 2011).

Legend:
Assay type in all cases: cell-based
[1] = tested on: HeLa cells; assay: Cell growth: trypan blue-negative viable cell count, HeLa; conditions: relative to controls
Experimental: Cell Growth. 24 hours post-transduction, HeLa cells were plated as described in materials and methods. Cells were then harvested and viable cells (trypan blue negative cells) were counted on indicated days. Data represent Mean+SD of triplicates. Cell proliferation. 24 hours post-transduction HeLa cells were stained with CF SE-red (SNARF-1 carboxylic acid, acetate, succinimidyl ester), harvested on indicated days and evaluated for CFSE-dilution by FACS. The numbers on the histograms indicate geometric peak mean intensities of CFSE staining in the transduced cells. Cell survival. Crystal violet staining of cells surviving upon IG20 down-modulation after transduction shown C-G.
(§1) In order to assess the effects on cell growth and proliferation, various shRNA-expressing viable cells were counted. […] The cells were stained with CFSE and cell division was monitored. […] Further confirmation was obtained by plating equal numbers of HeLa cells expressing various shRNAs and determining the number and size of colonies after 12 days.
Cell Proliferation. 24 hours post-transduction, 5×10^5 HeLa or 8×10^5 PA-1 cells were plated into six-well plates. Every other day, cells were collected, washed and stained with trypan blue, and trypan blue-negative viable cells were counted.

[2] = tested on: HeLa cells; assay: Crystal violet staining, colony formation, HeLa; conditions: after 12 days
Experimental: as §1
Crystal Violet Staining. 5×10^5 HeLa and 8×10^5 PA-1 cells were plated into six-well plates. 24 hours later cells were treated with different shRNA-expressing lentiviruses for 4 hours. Cells were washed and replenished with fresh warm medium. Twelve days later, cells were fixed in ice-cold methanol and stained with crystal violet to assess viability and colony formation.

[3] = tested on: caspase-8; assay: TRAIL-induced DISC immunoprecipitation from HeLa cells, immunoblot; conditions: 250 ng TRAIL 30 min, relative to SCR
Experimental: To more specifically analyze the DISC associated with TRAIL-bound death receptors, TRAIL-induced DISC was immunoprecipitated from HeLa cells using a biotinylated-antibody specific for TRAIL from HeLa cells that were either left untreated or treated with 250 ng of TRAIL for 30 min. Complexes were separated on 12% SDS-PAGE and subjected to immunoblotting with various antibodies that can specifically react with specific DISC components. Increased recruitment of FADD and pro-caspase-8 was observed after TRAIL treatment. […] However, increased caspase-8 activation (p43/41) was more apparent only upon MADD down-modulation.
Characterization of DISC immunoprecipitated using anti-TRAIL antibody. HeLa (2×10^7) cells transduced for 36 h were treated with 250 ng of TRAIL (Peprotech) for 30 minutes either at 4° C. (untreated) or at 37° C. (treated), collected, washed in cold PBS and lysed in 1 mL lysis buffer for 30 minutes on ice. The lysates were clarified and then normalized for protein concentration. The DISC was then immunoprecipitated overnight using 2 μg/mL of anti-TRAIL-biotinylated antibody. The biotinylated antibody was immunoprecipitated with 35 μL of 50% slurry of streptavidin agarose beads. The beads were washed three times with lysis buffer, boiled in SDS sample buffer and separated on a 12% SDS-PAGE gel for immunoblot analysis.

[4] = tested on: DR4; assay: Association of endogenous MADD with DR4 in HeLa cells (immunoprecipitation); conditions: LY 10 μM 1 h
Experimental: (A) Phosphorylation status of MADD could influence its binding to DR4. HEK293 cells were transfected with wtMADD or MADD mutants. 36 h after transfection, the cells were harvested for immunoprecipitation using an anti-DR4 antibody followed by immunoblotting using an anti-YFP antibody to detect exogenous MADD. The membrane was reprobed with an anti-DR4 antibody to show the protein loading. (B) PI3K can influence the association of exogenous MADD with DR4. HEK293 cells were transfected with wtMADD. Twenty four hours after transfection, the cells were serum starved for 20 h. Further, they were treated with LY (10 μM) for 1 h, IGF-1 (150 ng/ml) for 20 minutes. Immunoprecipitation using an anti-DR4 antibody was followed by immunoblotting using anti-YFP or anti-DR4 antibody. (C) Akt can influence exogenous MADD association with DR4. HEK293 cells were co-transfected with wtMADD along with DN-Akt or the empty vector pcDNA3.1 (pcDNA). Thirty six hours after transfection, the cells were harvested for immunoprecipitation using anti-DR4 antibody followed by immunoblotting with an anti-YFP or an anti-DR4 antibody. (D) PI3K can influence the association of endogenous MADD with DR4. HeLa cells were serum starved for 20 h, then treated with LY (10 μM) for 1 h, IGF-1 (150 ng/ml) for 20 minutes. […]
Immunoprecipitation. […] Immunoblots were prepared and analysed as described above.

Compound	Numbers of viable cells [1]	Number of colonies [2]	Size of colonies [2]	Intermediate fragments of caspase-8 (p43/41) in TRAIL immunoprecipitates [3]	Interaction between endogenous MADD and DR4 [4]
13L-shRNA: shRNA targeting exon 13L (IG20, MADD), 5′ CGGCGAATCTATGACAATC-3′ (SEQ ID NO: 4)	significant decrease in the numbers of viable cells	significantly fewer colonies	comparable to that of controls	increased levels of intermediate fragments of caspase-8 (p43/41)	–
O=c1cc(N2CCOCC2)oc2c(-c3ccccc3)cccc12 [LY]	–	–	–	–	reduced
